“Also recorded” adds a separate entry of the source.
What was measured:
[1] = test system: male midge EAG preparation (raspberry cane midge); experiment: GC-EAG analysis with male midge EAG preparation; design: species or system Resseliella theobaldi; details: volatiles from female midges, polar GC column
Experimental: GC-EAG analyses were carried out with a […] GC (Agilent) fitted with capillary GC columns ([…]×0.32 mm i.d.) coated with polar (Wax10; Supelco) and non-polar (SPB 1; Supelco) phases. Injection was splitless (220° C.) and detection was by FID (250°). The oven temperature was programmed from 50° C. for 2 min, then at 10° C./min to 250° C. The GC column effluent was split (1:1) between the FID and a silanised glass T-piece in the column oven. Nitrogen (500 ml/min) was blown continuously over the EAG preparation and every 17 sec this was diverted through the T-piece for 3 sec, blowing the contents over the EAG preparation, as described by Cork et al. (1991).
Following experience working with other midge species, the EAG preparation was set up by suspending the whole insect between glass electrodes containing electrolyte (0.1 M potassium chloride with 10% polyvinylpyrrolidone added to reduce evaporation). The ends of both antennae were inserted into the recording electrode and the body into the reference electrode. The electrodes were inserted into silver/silver chloride electrodes held in micromanipulators on the portable EAG device developed by Syntech (INR-02; Syntech, Hilversum, The Netherlands).
Major female-specific component is at 14.24 min; 2-undecanone at 9.07 min, 2-acetoxyundecane at 9.77 min and 2-undecanol at 10.45 min. EAG signals at 13.2 min and 14.9 min are probably interference spikes.

[2] = Rate of release of pheromone components from lures in laboratory wind tunnel; format: physicochemical; details: for Mean release rate: 27° C., 8 km/hr wind speed; for Mean ratio (release rate to the major component): major component = 100
Experimental: Measurements were made of the rates of release of the components from lures maintained in a laboratory wind tunnel at 27° C. and 8 km/hr wind speed. Volatiles were collected onto Porapak Q under same conditions for approximately 2 hours and the collections were analysed by Gas Chromatography with a flame ionisation detector using a polar column.
Release rates (ng/hr) and their ratios to the major component are shown.

[3] = test system: male raspberry cane midges; experiment: Field studies: sticky traps baited with rubber septum or polythene vial lures in raspberry plantations; format: in vivo, Resseliella theobaldi; details: for Mean total number males captured per trap (n): Log10(n + 1) / Mean total number males captured per trap (n): n: 11 May-7 Jun 2005, 10 plantations; for attractiveness to raspberry cane midge males (in words): field tests
From the text: • A) Sticky traps baited with a rubber septum or polythene vial lure containing 100 microgrammes of racemic 2-acetoxy-5-undecanone were deployed in ten raspberry plantations at Belks farm, Otham, Kent, Beech Farm, West Peckham Kent and East Malling Research between 11 May and 31 May 2005. An average of 153 male raspberry cane midges were caught, per trap, compared to an average of 1 in similar traps not baited with a lure. […] Sticky traps baited with a rubber septa or polythene vial lure containing 100 micrograms of racemic 2-acetoxy-5-undecanone alone or in admixture with 30 micrograms of racemic 2-undecanol, 30 micrograms of undecanone and 30 micrograms of racemic 2-undecyl acetate were deployed in ten raspberry plantations, 4 at Belks farm, Otham, Kent, 4 at Beech Farm, West Peckham Kent and 2 at East Malling Research, Kent between 11 May and 7 Jun. 2005 in a randomised complete block experimental design with the 10 different plantations as blocks.
The baited traps caught an average of 201 male raspberry cane midges per trap compared to an average of 1 in similar traps not baited with a lure.

male apple leaf midges = experiment: Field studies: sticky delta traps baited with synthetic lures in apple orchards; format: in vivo, Dasineura mali; details: for males caught: 19-27 May 2004; for attractiveness to male apple leaf midges (in words): in vivo; for average male midges caught: 5 replicate traps, 7 May-20 May 2004, East Malling; for average male apple leaf midges caught: 24-27 May 2004
From the text: A) Sticky delta traps baited with the synthetic lures impregnated with racemic (Z)-13-acetoxy-8-heptadecen-2-one were deployed in apple orchards. Large numbers of male apple leaf midges were caught in traps baited with the compound dispensed into the atmosphere from rubber septa.

SMILES: CCCCCCCCCC(C)O (racemic) [2-undecanol]
- EAG response [1]: probably responses
- Mean release rate ([2]; Interval 3 days, Septa): 20.2 ng/h
- Mean ratio (release rate to the major component) ([2]; Interval 3 days, Septa): 25
- Mean release rate ([2]; Interval 3 days, Vial): 19.5 ng/h
- Mean ratio (release rate to the major component) ([2]; Interval 3 days, Vial): 52
- Mean release rate ([2]; Interval 5 days, Vial): 21.1 ng/h
- Mean ratio (release rate to the major component) ([2]; Interval 5 days, Vial): 45
- Mean release rate ([2]; Interval 11 days, Septa): 27.4 ng/h
- Mean ratio (release rate to the major component) ([2]; Interval 11 days, Septa): 81
- Mean release rate ([2]; Interval 11 days, Vial): 29.4 ng/h
- Mean ratio (release rate to the major component) ([2]; Interval 11 days, Vial): 36
- Mean release rate ([2]; Interval 25 days, Vial): 17.4 ng/h
- Mean ratio (release rate to the major component) ([2]; Interval 25 days, Vial): 25
- Mean release rate ([2]; Interval 26 days, Septa): 7.4 ng/h
- Mean ratio (release rate to the major component) ([2]; Interval 26 days, Septa): 25

SMILES: CCCCCCCCCC(C)OC(C)=O (racemic) [2-undecyl acetate, 2-acetoxyundecane]
- EAG response [1]: probably responses
- Mean release rate ([2]; Interval 3 days, Septa): 30.8 ng/h
- Mean ratio (release rate to the major component) ([2]; Interval 3 days, Septa): 38
- Mean release rate ([2]; Interval 3 days, Vial): 23.8 ng/h
- Mean ratio (release rate to the major component) ([2]; Interval 3 days, Vial): 64
- Mean release rate ([2]; Interval 5 days, Vial): 20.6 ng/h
- Mean ratio (release rate to the major component) ([2]; Interval 5 days, Vial): 44
- Mean release rate ([2]; Interval 11 days, Septa): 14.5 ng/h
- Mean ratio (release rate to the major component) ([2]; Interval 11 days, Septa): 43
- Mean release rate ([2]; Interval 11 days, Vial): 31.7 ng/h
- Mean ratio (release rate to the major component) ([2]; Interval 11 days, Vial): 39
- Mean release rate ([2]; Interval 25 days, Vial): 21.8 ng/h
- Mean ratio (release rate to the major component) ([2]; Interval 25 days, Vial): 31
- Mean release rate ([2]; Interval 26 days, Septa): 8.9 ng/h
- Mean ratio (release rate to the major component) ([2]; Interval 26 days, Septa): 30

SMILES: CCCCCCC(=O)CCC(C)OC(C)=O (racemic) [racemic 2-acetoxy-5-undecanone, 2-acetoxy-5-undecanone]
- average male raspberry cane midges caught per trap ([3]; 100 microgrammes lure, rubber septum or polythene vial, ten plantations, 11 May-31 May 2005): 153
- Mean total number males captured per trap (n): Log10(n + 1) ([3]; Dispenser Septa): 1.969
- Mean total number males captured per trap (n): n ([3]; Dispenser Septa): 218
- Mean total number males captured per trap (n): Log10(n + 1) ([3]; Dispenser Vial): 2.042
- Mean total number males captured per trap (n): n ([3]; Dispenser Vial): 230
- attractiveness to raspberry cane midge males (in words) [3]: highly attractive; also recorded: attracted a significant number
- attractiveness to raspberry cane midge males (in words) ([3]; listed as 2-acetoxy-5-undecanone): work exceptionally well
- Mean release rate ([2]; Interval 3 days, Septa): 81.8 ng/h
- Mean ratio (release rate to the major component) ([2]; Interval 3 days, Septa): 100
- Mean release rate ([2]; Interval 3 days, Vial): 37.1 ng/h
- Mean ratio (release rate to the major component) ([2]; Interval 3 days, Vial): 100
- Mean release rate ([2]; Interval 5 days, Vial): 47.0 ng/h
- Mean ratio (release rate to the major component) ([2]; Interval 5 days, Vial): 100
- Mean release rate ([2]; Interval 11 days, Septa): 33.8 ng/h
- Mean ratio (release rate to the major component) ([2]; Interval 11 days, Septa): 100
- Mean release rate ([2]; Interval 11 days, Vial): 81.8 ng/h
- Mean ratio (release rate to the major component) ([2]; Interval 11 days, Vial): 100
- Mean release rate ([2]; Interval 25 days, Vial): 69.8 ng/h
- Mean ratio (release rate to the major component) ([2]; Interval 25 days, Vial): 100
- Mean release rate ([2]; Interval 26 days, Septa): 29.5 ng/h
- Mean ratio (release rate to the major component) ([2]; Interval 26 days, Septa): 100

SMILES: CCCCC(CCC/C=C\CCCCCC(C)=O)OC(C)=O (racemic) [racemic (Z)-13-acetoxy-8-heptadecen-2-one, (Z)-13-acetoxy-8-heptadecen-2-one]
- distance at which lures attract significant numbers of males (male apple leaf midges; 100 micrograms lure): at least 50 m
- males caught (male apple leaf midges; 100 micrograms lure, 10 m from isolated infested orchard): 563
- males caught (male apple leaf midges; 100 micrograms lure, 20 m from isolated infested orchard): 348
- males caught (male apple leaf midges; 100 micrograms lure, 30 m from isolated infested orchard): 148
- males caught (male apple leaf midges; 100 micrograms lure, 40 m from isolated infested orchard): 266
- males caught (male apple leaf midges; 100 micrograms lure, 50 m from isolated infested orchard): 103
- attractiveness to male apple leaf midges (in words) (male apple leaf midges): Large numbers
- attractiveness to male apple leaf midges (in words) (male apple leaf midges; listed as 13-acetoxy-8-heptadecen-2-one): strongly attractive effect
- attractiveness to male apple leaf midges (in words) (male apple leaf midges; listed as (Z)-13-acetoxy-8-heptadecen-2-one): racemic mixtures work exceptionally well
- apple leaf midges attracted to a trap (male apple leaf midges; one test, in one day, released at approximately 1 ng/hr): 1,600
- average male midges caught (male apple leaf midges; rubber septa 10 micrograms): 1201
- average male midges caught (male apple leaf midges; rubber septa 100 micrograms): 4037
- average male apple leaf midges caught (male apple leaf midges; rubber septum lure 1 microgram): 12
- average male apple leaf midges caught (male apple leaf midges; rubber septum lure 3 microgram): 97
- average male apple leaf midges caught (male apple leaf midges; rubber septum lure 10 microgram): 273

SMILES: CCCCCCC(=O)CCC(C)OC(C)=O (single isomer, unassigned) [major female-specific component, 2-acetoxy-5-undecanone]
- EAG response [1]: EAG response was always observed

SMILES: CCCCCCCCCC(C)=O [2-undecanone]
- Mean release rate ([2]; Interval 3 days, Septa): 21.6 ng/h
- Mean ratio (release rate to the major component) ([2]; Interval 3 days, Septa): 26
- Mean release rate ([2]; Interval 3 days, Vial): 41.2 ng/h
- Mean ratio (release rate to the major component) ([2]; Interval 3 days, Vial): 111
- Mean release rate ([2]; Interval 5 days, Vial): 39.4 ng/h
- Mean ratio (release rate to the major component) ([2]; Interval 5 days, Vial): 84
- Mean release rate ([2]; Interval 11 days, Septa): 14.3 ng/h
- Mean ratio (release rate to the major component) ([2]; Interval 11 days, Septa): 42
- Mean release rate ([2]; Interval 11 days, Vial): 39.6 ng/h
- Mean ratio (release rate to the major component) ([2]; Interval 11 days, Vial): 48
- Mean release rate ([2]; Interval 25 days, Vial): 21.6 ng/h
- Mean ratio (release rate to the major component) ([2]; Interval 25 days, Vial): 31
- Mean release rate ([2]; Interval 26 days, Septa): 9.9 ng/h
- Mean ratio (release rate to the major component) ([2]; Interval 26 days, Septa): 34

Source: patent US8071117B2, “Pheromones” (East Malling Research Limited, priority 2004, dated 2011)
